ChEMBL document CHEMBL4813963, “Discovery of pyrazolo-thieno[3,2-d]pyrimidinylamino-phenyl acetamides as type-II pan-tropomyosin receptor kinase (TRK) inhibitors: Design, synthesis, and biological evaluation” (Eur J Med Chem, 2021)

Key:
[1] = target: T1, High affinity nerve growth factor receptor (Homo sapiens, UniProt P04629); assay: Inhibition of recombinant His-tagged human TRKA (441 to 796 residues) expressed in baculovirus expression system at 20 uM using 5-FAM-EEPLYWSFPAKKK-CONH2 as substrate preincubated for 1 hr followed by substrate addition in presence of ATP by mobility shift assay relative to control
Target sequence in this assay (P04629 33-796 limits assumed): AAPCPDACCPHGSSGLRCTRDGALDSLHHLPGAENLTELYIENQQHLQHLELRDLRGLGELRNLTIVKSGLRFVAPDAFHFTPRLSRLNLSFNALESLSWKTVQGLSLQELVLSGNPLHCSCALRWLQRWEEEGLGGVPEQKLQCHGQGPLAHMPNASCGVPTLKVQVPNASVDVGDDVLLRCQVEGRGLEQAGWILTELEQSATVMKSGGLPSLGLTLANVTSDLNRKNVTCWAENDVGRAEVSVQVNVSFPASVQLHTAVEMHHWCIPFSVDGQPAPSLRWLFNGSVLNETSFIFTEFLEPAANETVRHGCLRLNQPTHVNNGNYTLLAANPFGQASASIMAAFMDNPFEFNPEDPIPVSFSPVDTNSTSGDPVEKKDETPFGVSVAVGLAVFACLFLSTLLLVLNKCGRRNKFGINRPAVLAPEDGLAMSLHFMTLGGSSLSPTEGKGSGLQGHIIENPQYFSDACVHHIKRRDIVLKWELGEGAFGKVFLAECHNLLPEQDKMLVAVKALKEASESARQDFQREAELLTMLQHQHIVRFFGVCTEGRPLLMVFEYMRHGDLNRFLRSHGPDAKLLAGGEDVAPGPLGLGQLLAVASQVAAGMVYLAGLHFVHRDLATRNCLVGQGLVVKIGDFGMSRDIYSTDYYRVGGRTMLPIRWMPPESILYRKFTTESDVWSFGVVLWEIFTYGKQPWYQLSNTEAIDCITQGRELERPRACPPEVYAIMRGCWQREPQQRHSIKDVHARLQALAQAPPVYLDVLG

[2] = test system: KM12; assay: Cytotoxicity against human KM12 cells assessed as reduction in cell viability incubated for 72 hrs by resazurin based assay; assay type: functional; details: KM12, 72 h
[3] = target: T1, High affinity nerve growth factor receptor; assay: Inhibition of recombinant His-tagged human TRKA (441 to 796 residues) expressed in baculovirus expression system using 5-FAM-EEPLYWSFPAKKK-CONH2 as substrate preincubated for 1 hr followed by substrate addition in presence of ATP by mobility shift assay
Target sequence in this assay (P04629 whole entry, the tested form may be a part): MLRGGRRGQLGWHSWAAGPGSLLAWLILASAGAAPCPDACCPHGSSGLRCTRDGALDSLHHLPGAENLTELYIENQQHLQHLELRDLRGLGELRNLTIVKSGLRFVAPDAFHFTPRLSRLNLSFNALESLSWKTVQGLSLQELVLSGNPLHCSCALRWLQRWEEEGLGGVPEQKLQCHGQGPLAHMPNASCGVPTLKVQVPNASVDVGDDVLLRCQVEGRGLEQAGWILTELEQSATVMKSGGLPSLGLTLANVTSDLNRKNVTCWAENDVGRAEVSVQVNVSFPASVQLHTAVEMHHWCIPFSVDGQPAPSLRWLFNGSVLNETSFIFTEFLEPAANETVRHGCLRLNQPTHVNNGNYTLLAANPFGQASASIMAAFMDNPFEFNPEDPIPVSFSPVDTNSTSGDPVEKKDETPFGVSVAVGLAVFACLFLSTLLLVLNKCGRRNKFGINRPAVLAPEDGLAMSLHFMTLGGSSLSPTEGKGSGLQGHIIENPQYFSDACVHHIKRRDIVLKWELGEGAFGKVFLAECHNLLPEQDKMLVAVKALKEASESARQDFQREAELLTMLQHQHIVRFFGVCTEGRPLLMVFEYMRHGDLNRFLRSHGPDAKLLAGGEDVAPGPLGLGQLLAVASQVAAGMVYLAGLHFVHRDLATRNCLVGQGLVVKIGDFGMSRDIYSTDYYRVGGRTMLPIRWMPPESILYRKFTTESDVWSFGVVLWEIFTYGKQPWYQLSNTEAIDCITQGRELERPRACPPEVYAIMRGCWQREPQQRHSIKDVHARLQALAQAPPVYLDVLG

[4] = Permeability of compound in human brain like endothelial cells BBB model at 10 uM after 120 mins by LC-MS analysis; assay type: ADME, cell-based; details: read-out: permeability (converted)

| inhibition [1] [%] | IC50 [3] [µM] | Papp at 2 h, 10 µM [4] [×10⁻⁶ cm/s] | Structure (SMILES) | IC50 [2] [µM] |
| --- | --- | --- | --- | --- |
| – | – | 17 | CN1CCN(c2ccc(C(=O)Nc3n[nH]c4ccc(Cc5cc(F)cc(F)c5)cc34)c(NC3CCOCC3)c2)CC1 [ENTRECTINIB] | 0.012 |
| – | 40.5 | – | O=C(Cc1ccc(Nc2ncnc3ccsc23)cc1)N[C@H]1CCCC[C@@H]1O | > 200 |

Second part, the molecule before the results:

| Structure (SMILES) | inhibition [1] [%] | IC50 [3] [µM] | Papp at 2 h, 10 µM [4] [×10⁻⁶ cm/s] | IC50 [2] [µM] |
| --- | --- | --- | --- | --- |
| Cn1nc(C(C)(C)C)cc1NC(=O)Cc1ccc(-c2ncnc3ccsc23)cc1 | 31.4 | – | – | 25.2 |
| COc1cc(-c2cc3ncnc(Nc4ccc(CC(=O)Nc5ccc(F)c(Cl)c5)cc4)c3s2)cc(OC)c1OC | – | > 200 | – | – |
| C#Cc1cccc(NC(=O)Cc2ccc(Nc3ncnc4ccsc34)cc2)c1 | – | 22.6 | – | 38.8 |
| CC(C)(C)c1cc(NC(=O)Cc2ccc(-c3ncnc4ccsc34)cc2)no1 | 18 | – | – | 86.5 |
| O=C(Cc1ccc(Nc2ncnc3ccsc23)cc1)N[C@@H]1CCCC[C@@H]1O | – | 41.2 | – | > 200 |
